Test results reported in patent publication US11000033B2, “Ketone or oxime compound, and herbicide” (NISSAN CHEMICAL CORPORATION, priority 2014, dated 2021).

Columns and labels:
Type in all cases: in vivo
[1] = system: Echinochloa oryzacola Vasing.; assay: Test Example 1: herbicidal activity, application before weed generation in submerged conditions (symbol A); settings: application herbicide amount 320 g/ha
In short: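 Pre-emergence, paddy conditions: emulsifiable formulation diluted in water, dosed onto floodwater (4 cm depth) on sowing day. Alluvial soil; weeds sown mixed; rice transplanted at 2.5-leaf stage. Greenhouse 25–30 °C, 3 wk. Score 0–5 (5 = ≥90% kill, 0 = ≤5%).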

transplanted rice plant = assay: Test Example 1: effect on crop, application before weed generation in submerged conditions (symbol a); settings: application herbicide amount 320 g/ha
In short: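 Rice at 2.5 leaf stage transplanted into submerged soil (4 cm depth) sown with three weed species; herbicide applied before weed emergence.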

[2] = system: Echinochloa crus-galli var. crus-galli; assay: Test Example 3: herbicidal effect by foliage application, Wagner pot (symbol H); settings: application herbicide amount 320 g/ha
In short: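 Weeds and rice were sown in alluvial soil under 0.1–0.5 cm of standing water and grown for 14 days in a 25–30 °C greenhouse. An emulsion of the compound, diluted in water to a set dose, was sprayed evenly onto the foliage. Effect was scored against fixed criteria 3 weeks after treatment.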

Stellaria media = assay: Test Example 4: herbicidal effect by soil treatment (symbol P); settings: application herbicide amount 320 g/ha
In short: (§1)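 Seeds were sown in sterilized diluvial soil, covered with about 1.5 cm of soil, and the soil surface was sprayed with a water-diluted emulsion of the compound at a predetermined rate. Plants grew in a greenhouse at 25° C. to 30° C.; effects were scored visually 3 weeks after application.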

Veronica persica = assay: Test Example 4: herbicidal effect by soil treatment (symbol R); settings: application herbicide amount 320 g/ha
In short: as §1

corn = assay: Test Example 4: effect on crop by soil treatment (symbol c); settings: application herbicide amount 320 g/ha
In short: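 Crop seed is sown in spots together with several weed species in a box of sterilized diluvial soil. It is covered by about 1.5 cm of soil and kept in a greenhouse held between 25° C. and 30° C.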

soybean [3] = assay: Test Example 4: effect on crop by soil treatment (symbol d); settings: application herbicide amount 320 g/ha
In short: (§2)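 Soil-treatment setup: crop and weed seeds were spot-sown into sterilized diluvial soil, then buried beneath approximately 1.5 cm of it, and the boxes were housed in a 25–30° C. greenhouse.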

beet [4] = assay: Test Example 4: effect on crop by soil treatment (symbol f); settings: application herbicide amount 320 g/ha
In short: as §2

Alopecurus myosuroides = assay: Test Example 5: herbicidal effect by foliage application, plastic box (symbol J); settings: 320 g/ha, 3 weeks after application
In short: (§3)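 Emulsion formulation, diluted with water to the intended rate, was applied uniformly to leaves by small sprayer. Recipients were 14-day greenhouse-grown seedlings (25° C. to 30° C.). Assessment followed at 3 weeks.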

Abutilon theophrasti = assay: Test Example 5: herbicidal effect by foliage application, plastic box (symbol M); settings: 320 g/ha, 3 weeks after application
In short: as §3

Galium spurium = assay: Test Example 5: herbicidal effect by foliage application, plastic box (symbol Q); settings: 320 g/ha, 3 weeks after application
In short: as §3

soybean [5] = assay: Test Example 5: effect on crop by foliage application, plastic box (symbol d); settings: 320 g/ha, 3 weeks after application
In short: (§4)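 Seeds were sown in spots in sterilized diluvial soil held in a plastic box 21 cm × 13 cm × 7 cm deep, covered with about 1.5 cm of soil, and grown in a greenhouse at 25° C. to 30° C.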

rice plant = assay: Test Example 5: effect on crop by foliage application, plastic box (symbol b); settings: 320 g/ha, 3 weeks after application
In short: as §4

wheat = assay: Test Example 5: effect on crop by foliage application, plastic box (symbol e); settings: 320 g/ha, 3 weeks after application
In short: as §4

beet [6] = assay: Test Example 5: effect on crop by foliage application, plastic box (symbol f); settings: 320 g/ha, 3 weeks after application
In short: as §4

SMILES | Herbicidal effect grade, A: Echinochloa oryzacola Vasing. [1] | Effect grade on crop, a: transplanted rice plant (transplanted rice plant) | herbicidal effect on H (Echinochloa crus-galli var. crus-galli), grade 0-5 [2] | Herbicidal effect grade, P: Stellaria media (Stellaria media) | Herbicidal effect grade, R: Veronica persica (Veronica persica) | Effect on crop grade, c: corn (corn) | Effect on crop grade, d: soybean (soybean [3]) | Effect on crop grade, f: beet (beet [4]) | J: Alopecurus myosuroides, herbicidal effect (criteria of Test Example 1) (Alopecurus myosuroides) | M: Abutilon theophrasti, herbicidal effect (criteria of Test Example 1) (Abutilon theophrasti) | Q: Galium spurium, herbicidal effect (criteria of Test Example 1) (Galium spurium) | d: soybean, effect on crop (criteria of Test Example 1) (soybean [5]) | b: directly sowed rice plant, effect on crop (criteria of Test Example 1) (rice plant) | e: wheat, effect on crop (criteria of Test Example 1) (wheat) | f: beet, effect on crop (criteria of Test Example 1) (beet [6]) | J: Alopecurus myosuroides, herbicidal effect grade (Alopecurus myosuroides) | M: Abutilon theophrasti, herbicidal effect grade (Abutilon theophrasti) | Q: Galium spurium, herbicidal effect grade (Galium spurium) | d: soybean, effect on crop grade (soybean [5]) | b: directly sowed rice plant, effect on crop grade (rice plant) | further results
CON=C(C)CC1CC(OC(=O)N(C)C)=C(c2c(C)cc(C)cc2OC)C1=O (stereo not drawn) [6-109] | 5 (Herbicidal ratio of 90% or more (almost completely withered)) | 5 (Herbicidal ratio of 90% or more (almost completely withered)) | 5 (Herbicidal ratio of 90% or more (almost completely withered)) | 0 (Herbicidal ratio of 5% or lower (almost no effect)) | 0 (Herbicidal ratio of 5% or lower (almost no effect)) | 0 (Herbicidal ratio of 5% or lower (almost no effect)) | 0 (Herbicidal ratio of 5% or lower (almost no effect)) | 0 (Herbicidal ratio of 5% or lower (almost no effect)) | 5 (Herbicidal ratio of 90% or more (almost completely withered)) | 4 (Herbicidal ratio of 70% or higher and lower than 90%) | 0 (Herbicidal ratio of 5% or lower (almost no effect)) | 2 (Herbicidal ratio of 20% or higher and lower than 40%) | 5 (Herbicidal ratio of 90% or more (almost completely withered)) | 4 (Herbicidal ratio of 70% or higher and lower than 90%) | 0 (Herbicidal ratio of 5% or lower (almost no effect)) |  |  |  |  |  | 
CON=C(C)CC1CC(OC(=O)COc2ccccc2)=C(c2c(C)cc(C)cc2OC)C1=O (stereo not drawn) [6-091] | 5 (Herbicidal ratio of 90% or more (almost completely withered)) | 5 (Herbicidal ratio of 90% or more (almost completely withered)) | 5 (Herbicidal ratio of 90% or more (almost completely withered)) | 4 (Herbicidal ratio of 70% or higher and lower than 90%) | 4 (Herbicidal ratio of 70% or higher and lower than 90%) | 5 (Herbicidal ratio of 90% or more (almost completely withered)) | 1 (Herbicidal ratio of 5% or higher and lower than 20%) | 1 (Herbicidal ratio of 5% or higher and lower than 20%) | 5 (Herbicidal ratio of 90% or more (almost completely withered)) | 4 (Herbicidal ratio of 70% or higher and lower than 90%) | 3 (Herbicidal ratio of 40% or higher and lower than 70%) | 4 (Herbicidal ratio of 70% or higher and lower than 90%) | 5 (Herbicidal ratio of 90% or more (almost completely withered)) | 5 (Herbicidal ratio of 90% or more (almost completely withered)) | 3 (Herbicidal ratio of 40% or higher and lower than 70%) |  |  |  |  |  | 
CON=C(C)CC1CC(O)=C(c2c(C)cc(OCc3ccncc3)cc2C)C1=O (mixture of isomers) [6-053] | 4 (Herbicidal ratio of 70% or higher and lower than 90%) | 3 (Herbicidal ratio of 40% or higher and lower than 70%) | 5 (Herbicidal ratio of 90% or more (almost completely withered)) |  |  |  |  |  |  |  |  |  |  |  |  | 3 (Herbicidal ratio of 40% or higher and lower than 70%) | 0 (Herbicidal ratio of 5% or lower (almost no effect)) | 0 (Herbicidal ratio of 5% or lower (almost no effect)) | 0 (Herbicidal ratio of 5% or lower (almost no effect)) | 3 (Herbicidal ratio of 40% or higher and lower than 70%) | P: Stellaria media, herbicidal effect grade (Stellaria media): 0 (Herbicidal ratio of 5% or lower (almost no effect)); R: Veronica persica, herbicidal effect grade (Veronica persica): 0 (Herbicidal ratio of 5% or lower (almost no effect)); c: corn, effect on crop grade (corn): 1 (Herbicidal ratio of 5% or higher and lower than 20%); d: soybean, effect on crop grade (soybean [3]): 0 (Herbicidal ratio of 5% or lower (almost no effect)); f: beet, effect on crop grade (beet [4]): 0 (Herbicidal ratio of 5% or lower (almost no effect)); e: wheat, effect on crop grade (wheat): 0 (Herbicidal ratio of 5% or lower (almost no effect)); f: beet, effect on crop grade (beet [6]): 0 (Herbicidal ratio of 5% or lower (almost no effect))
CON=C(C)CC1CC(OS(=O)(=O)N(C)C)=C(c2c(C)cc(C)cc2OC)C1=O (stereo not drawn) [6-095] | 5 (Herbicidal ratio of 90% or more (almost completely withered)) | 5 (Herbicidal ratio of 90% or more (almost completely withered)) | 5 (Herbicidal ratio of 90% or more (almost completely withered)) | 0 (Herbicidal ratio of 5% or lower (almost no effect)) | 0 (Herbicidal ratio of 5% or lower (almost no effect)) | 2 (Herbicidal ratio of 20% or higher and lower than 40%) | 0 (Herbicidal ratio of 5% or lower (almost no effect)) | 0 (Herbicidal ratio of 5% or lower (almost no effect)) | 5 (Herbicidal ratio of 90% or more (almost completely withered)) | 4 (Herbicidal ratio of 70% or higher and lower than 90%) | 0 (Herbicidal ratio of 5% or lower (almost no effect)) | 3 (Herbicidal ratio of 40% or higher and lower than 70%) | 5 (Herbicidal ratio of 90% or more (almost completely withered)) | 4 (Herbicidal ratio of 70% or higher and lower than 90%) | 0 (Herbicidal ratio of 5% or lower (almost no effect)) |  |  |  |  |  | 
CC(=O)C1CC(O)=C(c2c(C)cc(C)cc2C)C1=O (stereo not drawn) [8-001] | 0 (Herbicidal ratio of 5% or lower (almost no effect)) | 0 (Herbicidal ratio of 5% or lower (almost no effect)) |  | 0 (Herbicidal ratio of 5% or lower (almost no effect)) | 0 (Herbicidal ratio of 5% or lower (almost no effect)) | 0 (Herbicidal ratio of 5% or lower (almost no effect)) | 0 (Herbicidal ratio of 5% or lower (almost no effect)) | 0 (Herbicidal ratio of 5% or lower (almost no effect)) |  |  |  |  |  |  |  | 0 (Herbicidal ratio of 5% or lower (almost no effect)) | 0 (Herbicidal ratio of 5% or lower (almost no effect)) | 0 (Herbicidal ratio of 5% or lower (almost no effect)) | 0 (Herbicidal ratio of 5% or lower (almost no effect)) | 2 (Herbicidal ratio of 20% or higher and lower than 40%) | H (Echinochloa crus-galli var. crus-galli) herbicidal effect grade ([2]; Table 24): 0 (Herbicidal ratio of 5% or lower (almost no effect)); e: wheat, effect on crop grade (wheat): 0 (Herbicidal ratio of 5% or lower (almost no effect)); f: beet, effect on crop grade (beet [6]): 0 (Herbicidal ratio of 5% or lower (almost no effect))
